Data: PMC8228141, “Antiprotozoal Nor-Triterpene Alkaloids from Buxus sempervirens L” (Antibiotics, 2021)
“And” between values parts separate entries of the source, which are not always exact repeats. Equal values may be shown once. Read-outs that look alike come from different tables or passages of the source.

What was measured:
[1] = system: Trypanosoma brucei rhodesiense (Tbr) (bloodstream trypomastigotes, STIB 900 strain); assay: In vitro antitrypanosomal activity; format: cell-based; details: for SI Tbr (selectivity index): cytotoxicity L6 vs Tbr
Procedure: (§1) After isolation, all alkaloids were tested in vitro for antiplasmodial and antitrypanosomal activity against Plasmodium falciparum (Pf) and Trypanosoma brucei rhodesiense (Tbr). Furthermore, to assess their selectivity against the parasites, cytotoxicity against L6 rat skeletal myoblasts, as mammalian control cells, was tested (Table 4).
In vitro assays for the bioactivity of the isolated Buxus-alkaloids against Tbr (bloodstream trypomastigotes, STIB 900 strain), Trypanosoma cruzi (Tc) (amastigotes, Tulahuen C4 strain), Leishmania donovani (Ldo) (amastigotes, MHOM-ET-67/L82 strain) and Pf (intraerythrocytic forms, NF54 strain), and cytotoxicity tests against mammalian cells (L6-cell line from rat-skeletal myoblasts), were performed at the Swiss Tropical and Public Health Institute (Swiss TPH, Basel, Switzerland) according to established standard protocols. […] Such a pattern of activity was also observed in other studies.

[2] = system: L6 rat skeletal myoblasts; assay: Cytotoxicity against mammalian control cells; format: cell-based; details: L6 cell line; for Cytotox. IC50: mean of n = 2 (fluctuation range) or * n = 3 (SD); for IC50: read-out: Cytotox. IC50 (in parentheses) (converted)
Procedure: as §1
(§2) In vitro assays for the bioactivity of the isolated Buxus-alkaloids against Tbr (bloodstream trypomastigotes, STIB 900 strain), Trypanosoma cruzi (Tc) (amastigotes, Tulahuen C4 strain), Leishmania donovani (Ldo) (amastigotes, MHOM-ET-67/L82 strain) and Pf (intraerythrocytic forms, NF54 strain), and cytotoxicity tests against mammalian cells (L6-cell line from rat-skeletal myoblasts), were performed at the Swiss Tropical and Public Health Institute (Swiss TPH, Basel, Switzerland) according to established standard protocols.

[3] = system: Plasmodium falciparum (Pf) (intraerythrocytic forms, NF54 strain); assay: In vitro antiplasmodial activity; format: cell-based; details: for SI Pf (selectivity index): cytotoxicity L6 vs Pf
Procedure: as §1, §2

[4] = Cytotoxicity against mammalian control cells; format: cell-based, rat; details: rat
Procedure: as §1, §2

[5] = STIB 900 strain, mean of n = 2 (fluctuation range) or * n = 3 (SD)
[6] = STIB 900 strain, read-out: Tbr IC50 (in parentheses) (converted)
[7] = NF54 strain, mean of n = 2 (fluctuation range) or * n = 3 (SD)
[8] = NF54 strain, read-out: Pf IC50 (in parentheses) (converted)
[9] = Trypanosoma brucei, STIB 900 strain, mean of n = 2 (fluctuation range) or * n = 3 (SD), read-out: Tbr IC50
[10] = Trypanosoma brucei, STIB 900 strain, read-out: Tbr IC50 (in parentheses) (converted)
[11] = Plasmodium falciparum, NF54, NF54 strain, mean of n = 2 (fluctuation range) or * n = 3 (SD), read-out: Pf IC50
[12] = Plasmodium falciparum, NF54, NF54 strain, read-out: Pf IC50 (in parentheses) (converted)
[13] = L6 rat skeletal myoblast cells, L6 cell line, mean of n = 2 (fluctuation range) or * n = 3 (SD), read-out: Cytotox. IC50
[14] = L6 rat skeletal myoblast cells, L6 cell line, read-out: Cytotox. IC50 (in parentheses) (converted)

Row | SMILES | Tbr IC50 [1, 5] [µg/mL] | Cytotox. IC50 [2] [µg/mL] | IC50 [2] [µM] | IC50 [1, 6] [µM] | Pf IC50 [3, 7] [µg/mL] | IC50 [3, 8] [µM] | IC50 [1, 9] [µg/mL] | IC50 [1, 10] [µM] | SI Tbr (selectivity index) [1] | IC50 [3, 11] [µg/mL] | IC50 [3, 12] [µM] | SI Pf (selectivity index) [3] | further results
1 | CC(=O)O[C@@H]1C[C@@]2(C)[C@@H]3CC[C@@H]4C(=CC3=CC[C@]2(C)[C@H]1[C@H](C)NC(=O)c1ccccc1)CC[C@H](N(C)C)C4(C)C [Compound 22, N-benzoyl-O-acetylbuxodienine-E] | 3.4 ± 1 | 8.5 ± 0.1 | 15.6 |  |  |  |  |  |  |  |  |  | 
2 | C[C@@H]([C@H]1CC[C@H]2[C@@H]3CC=C4C[C@@H](O)CC[C@]4(C)[C@H]3CC[C@]12C)N(C)C [Compound 19, Irehine] | 2.2 ± 0.07 | 13.4 ± 0.5 | 38.8 | 6.4 | 1.3 ± 0.35 | 3.8 |  |  |  |  |  |  | 
3 | C=C1[C@@H](N(C)C)CC[C@]23C[C@]24CC[C@]2(C)[C@@H](C(C)=O)[C@H](O)C[C@@]2(C)[C@@H]4CC[C@@H]13 [Compound 18, Cyclomicrobuxine] | 16.9 ± 2.3 | 26.8 ± 8.8 | 69.6 | 44 | 2.6 ± 0.005 | 6.8 |  |  |  |  |  |  | 
4 | C/C=C(\C)C(=O)O[C@@H]1C[C@@]2(C)[C@@H]3C=C[C@H]4[C@](C)(CO)[C@@H](N(C)C)CC[C@@]45C[C@@]35CC[C@]2(C)[C@H]1[C@H](C)NC [Compound 3, O-tigloylcyclomicrophylline-B] |  |  |  |  |  | 0.98 | 4.6 ± 0.005 | 9 | 8 | 0.5 ± 0.06 | < 1 | 72 | IC50 [4]: 35.8 µg/mL and 69.9 µM
5 | CN[C@H]1CC=C2CC3=CC[C@]4(C)[C@@H]([C@H](C)NC(C)=O)CC[C@@]4(C)[C@@H]3CC[C@H]2C1(C)C [Compound 24, N20-acetylbuxadine-G] |  |  |  |  |  |  | 0.52 ± 0.27 | 1.3 | 33 | 2.3 ± 0.27 | 5.6 | 7 | IC50 [4, 13]: 16.9 ± 1.1 µg/mL; IC50 [4, 14]: 41 µM
6 | C[C@@H]([C@H]1[C@H](O)C[C@@]2(C)[C@@H]3CC[C@H]4C(C)(C)C(=O)C=C[C@@]45C[C@@]35CC[C@]12C)N(C)C [Compound 12, Nb-dimethylcycloxobuxoviricine] | 2.5 ± 0.1 | 19 ± 1.2 | 47.6 | 6.3 | 1.4 ± 0.44 | 3.5 |  |  |  |  |  |  | 
7 | CC(=O)[C@H]1[C@H](O)C[C@@]2(C)[C@@H]3CC[C@@H]4C(=CC3=CC[C@]12C)CC[C@H](N(C)C)C4(C)C [Compound 20, 16-α-hydroxybuxaminone] | 5.26 ± 0.3 | 45 ± 1 | 113 | 13.2 | 1.6 ± 0.57 | 4 |  |  |  |  |  |  | 
8 | CC(=O)N[C@@H](C)[C@H]1CC[C@@]2(C)[C@@H]3CC[C@@H]4C(=CC3=CC[C@]12C)CC[C@H](N(C)C)C4(C)C [Compound 21, N20-acetylbuxamine-E] | 53 ± 1 | 54.8 ± 1.1 | 129 | 124 | 3.1 ± 0.24 | 7.3 |  |  |  |  |  |  | 
9 | CN[C@@H](C)[C@H]1CC[C@@]2(C)[C@@H]3CC[C@H]4C(C)(C)[C@@H](NC)[C@H](OC(=O)c5ccccc5)C[C@@]45C[C@@]35CC[C@]12C [Compound 8, O-benzoyl-cycloprotobuxoline-D] |  |  |  |  |  |  | 0.55 ± 0.18 | 1.1 | 12 | 0.09 ± 0.03 | 0.18 | 74 | IC50 [4]: 6.65 µg/mL and 13.1 µM
10 | Nc1nc(N)nc(Nc2ccc([As]3SCC(CO)S3)cc2)n1 (stereo not shown) [Melarsoprol, reference compound] |  |  |  |  |  |  |  |  |  |  |  |  | IC50 ([1]; Trypanosoma brucei, read-out: Tbr IC50): 0.005 ± 0.001 µg/mL; IC50 ([1]; Trypanosoma brucei, read-out: Tbr IC50 (in parentheses)): 0.013 µM
11 | COc1cc([C@@H]2c3cc4c(cc3[C@H](O)[C@H]3COC(=O)[C@H]23)OCO4)cc(OC)c1OC [Podophyllotoxin, reference compound] |  |  |  |  |  |  |  |  |  |  |  |  | IC50 ([4]; L6 cell line, mean of n = 2 (fluctuation range) or * n = 3 (SD), read-out: Cytotox. IC50): 0.006 ± 0.001 µg/mL
12 | CC(C1C(OC(=O)c2ccccc2)CC2(C)C3C=CC4C(C)(CO)C(N(C)C)CCC45CC35CCC12C)N(C)C (stereo not shown) [Compound 6, Cyclomicrophyllidine-A] | 0.69 ± 0.06 | 9.3 ± 3 | 17 | 1.3 | 0.4 ± 0.02 | 0.7 |  |  |  |  |  |  | 
13 | C/C=C(\C)C(=O)O[C@@H]1C[C@@]2(C)[C@@H]3C=C[C@H]4[C@](C)(CO)[C@@H](N(C)C)CC[C@@]45C[C@@]35CC[C@]2(C)[C@H]1[C@H](C)N(C)C [Compound 4, O-tigloylcyclomicrophylline-A] |  |  |  |  |  | 0.7 | 1.5 ± 0.76 | 2.9 | 8 | 0.35 ± 0.08 | < 1 | 34 | IC50 [4]: 12 µg/mL and 22.8 µM
14 | CC(C1C(O)CC2(C)C3C=CC4C(C)(CO)C(N(C)C)CCC45CC35CCC12C)N(C)C (stereo not shown) [Compound 5, Cyclomicrophylline-A] | 1.04 ± 0.27 | 44 ± 2.3 | 99 | 2.34 | 0.78 ± 0.08 | 1.76 |  |  |  |  |  |  | 
15 | CC(=O)O[C@@H]1C[C@@]2(C)[C@@H]3CC[C@@H]4C(=CC[C@H](N(C)C)C4(C)C)CC3=CC[C@]2(C)[C@H]1[C@H](C)NC(=O)c1ccccc1 [Compound 23, N-benzoyl-O-acetylbuxadine-E] |  |  |  |  |  |  | 3.1 ± 0.6 | 5.7 | 9 | 4.2 ± 0.4 | 7.7 | 7 | IC50 [4, 13]: 27.5 ± 16 µg/mL; IC50 [4, 14]: 50.4 µM
16 | CC(=O)OC[C@]1(C)[C@@H](NC(=O)c2ccccc2)CC[C@]23C[C@]24C(=O)C[C@]2(C)[C@@H]([C@H](C)N(C)C)CC[C@@]2(C)[C@@H]4CC[C@@H]13 [Compound 9, N-benzoyl-O-acetyl-cycloxo-buxoline-F] | 1.35 ± 0.45 | 41 ± 0.7 | 73 | 2.4 | 2.15 ± 0.29 | 3.8 |  |  |  |  |  |  | 
17 | C[C@@H]([C@H]1[C@H](O)C[C@@]2(C)[C@@H]3CC[C@@H]4[C@@]5(CCC(=O)[C@@]4(C)CO)C[C@@]35CC[C@]12C)N(C)C [Compound 11, 29-hydroxy-cyclomikuranine-L] |  |  |  |  |  |  | 2.9 ± 1 | 7 | 15 | 0.9 ± 0.13 | 2.2 | 49 | IC50 [4]: 44 µg/mL and 105 µM
18 | CN[C@H]1CC=C2CC3=CC[C@@]4(C)[C@@](C)(CC[C@]4(O)[C@H](C)O)[C@@H]3CC[C@H]2C1(C)C [Compound 25, 17,20-dihydroxybuxadine-M] |  |  |  |  |  |  | 6.7 ± 0.49 | 17.3 | 7 | 3.6 ± 0.05 | 9.3 | 12 | IC50 [4, 13]: 44.5 ± 5.5 µg/mL; IC50 [4, 14]: 115 µM
19 | C=C1C2CC[C@@H]3[C@]4(CC[C@]5(C)[C@@H](C(C)=O)[C@H](O)C[C@@]35C)C[C@]24CC[C@@H]1NC (stereo partly shown) [Compound 17, Cyclomicrobuxinine] |  |  |  |  |  |  | 48 ± 0.2 | 129 | 0.6 | 4.1 ± 0.8 | 10.9 | 7 | IC50 [4]: 30.5 µg/mL and 82 µM
20 | CCN(CC)CCCC(C)Nc1ccnc2cc(Cl)ccc12 (stereo not shown) [Chloroquine, reference compound] |  |  |  |  |  |  |  |  |  |  |  |  | IC50 ([3]; Plasmodium falciparum, NF54, read-out: Pf IC50): 0.006 ± 0.001 µg/mL; IC50 ([3]; Plasmodium falciparum, NF54, read-out: Pf IC50 (in parentheses)): 0.019 µM
21 | CN[C@@H](C)[C@H]1[C@H](OC(=O)c2ccccc2)C[C@@]2(C)[C@@H]3C=C[C@H]4[C@](C)(CO)[C@@H](N(C)C)CC[C@@]45C[C@@]35CC[C@]12C [Compound 7, Cyclomicrophyllidine-B] |  |  |  |  |  |  | 1.9 ± 0.3 | 3.6 | 8 | 0.11 ± 0.01 | 0.2 | 145 | IC50 [4]: 16 µg/mL and 29.9 µM
